Experiments:
[1] = system: BALB/C mice; assay: In vivo expression, whole-body luminescence (IVIS); details: cirRNA (SEQ ID NO: 1) LNPs, BALB/C mice
Description: 6-8 week old, female BALB/C mice were injected with 0.05 mg*kg-1 of RNA-LNPs encoding for firefly-luciferase by intravenous injection. At 6 hours post injection, animals were intraperitoneally injected with 15 mg/ml of Luciferin substrate and whole-body luminescence was determined by a bioluminescent in vivo imaging system (IVIS).

[2] = system: Hep G2 cells; assay: In vitro toxicity (CellTiter-Glo cell viability), Hep G2; assay type: cell-based; details: cirRNA (SEQ ID NO: 1) LNPs; Hep G2 cells;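 also: percent of untreated cells luminescence signal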
How it was run: (§1)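 Toxicity of RNA-LNPs (1 μg/mL) is reported as cell viability, calculated from CellTiter-Glo luminescence measured at 72 hours after transfection.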

[3] = RNA encapsulation efficacy by Quant-IT Ribogreen kit; assay type: physicochemical; details: LNP with cirRNA (SEQ ID NO: 1)
How it was run: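 Encapsulation efficacy came from Ribogreen fluorescence of LNPs compared with Triton X-100-lysed LNPs. The particles carried luciferase-encoding circular or linear RNA at an ionizable lipid:ribonucleotide ratio of 15 or 6.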

[4] = LNP size and polydispersity index (PDI) by dynamic light scattering; assay type: physicochemical; details: LNP with cirRNA (SEQ ID NO: 1); for Size: in nm (unit assumed)
How it was run: (§2)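 Dynamic light scattering and zeta potential measurements were run on PBS-dialyzed LNPs, which had been formed by microfluidic mixing at 12 ml/min with final lipid at 1.5 mM to 6 mM. RNA content and percent encapsulation were determined by Ribogreen with and without Triton X-100.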

[5] = system: Hep G2 cells; assay: In vitro expression of firefly-luciferase, Hep G2; assay type: cell-based; details: cirRNA (SEQ ID NO: 1) LNPs; firefly-luciferase luminescence; Hep G2 cells
How it was run: (§3)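 Transfection used 100 ng/mL luciferase-encoding RNA-LNPs; activity in lysates was determined at 72 h.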

[6] = system: RAW 264.7 cells; assay: In vitro toxicity (CellTiter-Glo cell viability), RAW 264.7; assay type: cell-based; details: cirRNA (SEQ ID NO: 1) LNPs; RAW 264.7 cells;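 also: percent of untreated cells luminescence signal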
How it was run: as §1

[7] = system: RAW 264.7 cells; assay: In vitro expression of firefly-luciferase, RAW 264.7; assay type: cell-based; details: cirRNA (SEQ ID NO: 1) LNPs; firefly-luciferase luminescence; RAW 264.7 cells
How it was run: as §3

[8] = LNP zeta potential (Zetasizer); assay type: physicochemical; details: LNP with cirRNA (SEQ ID NO: 1)
How it was run: as §2

Structure (SMILES) | In vivo Expression (Whole Body) [1] | In vitro Viability HepG2 [2] [%] | Encapsulation Efficiency % [3] [%] | PDI [4] | Size [4] | In vitro Expression HepG2 [5] | In vitro Viability RAW [6] [%] | In vitro Expression RAW [7] | Zeta (mV) [8] [mV]
CCCCCCCCCCCOC(=O)CCCCCN(CCCCCC(=O)OCCCCCCCCCCC)CCOC(=O)NCCN1CCCCC1 [Lipid 150, diundecyl 6,6′-((2-(((2-(piperidin-1-yl)ethyl)carbamoyl)oxy)ethyl)azanediyl)dihexanoate] | 7.27E+05 | 114 | 79 | 0.05565 | 91.37 | 1.44E+04 | 104 | 6.81E+02 | 17.84
CCCCCCCCCCCOC(=O)CCCCCN(CCCCCC(=O)OCCCCCCCCCCC)CCOC(=O)NCCN1CCCC1 [Lipid 151, diundecyl 6,6′-((2-(((2-(pyrrolidin-1-yl)ethyl)carbamoyl)oxy)ethyl)azanediyl)dihexanoate] | 1.18E+05 | 110 | 89 | 0.1693 | 98.37 | 8.79E+03 | 99 | 3.27E+01 | 20.18
CCCCCCCCCCCOC(=O)CCCCCN(CCCCCC(=O)OCCCCCCCCCCC)CCOC(=O)NCCCN(C)C [Lipid 153] | 1.02E+05 | 120 | 89 | 0.09308 | 71.11 | 1.95E+04 | 104 | 2.44E+02 | 18.95
CCCCCCCCCCCOC(=O)CCCCCN(CCCCCC(=O)OCCCCCCCCCCC)CCOC(=O)NCCN(C)C [Lipid 154, undecyl 2-methyl-6-oxo-10-(6-oxo-6-(undecyloxy)hexyl)-7-oxa-2,5,10-triazahexadecan-16-oate] | 1.01E+05 | 106 | 90 | 0.1144 | 75.25 | 2.59E+05 | 101 | 2.36E+03 | 25.23
CCCCCCCCCCCOC(=O)CCCCCN(CCCCCC(=O)OCCCCCCCCCCC)CCOC(=O)NCc1ncc[nH]1 [Lipid 155, diundecyl 6,6′-((2-((((1H-imidazol-2-yl)methyl)carbamoyl)oxy)ethyl)azanediyl)dihexanoate] | 5.77E+07 | 111 | 76 | 0.1182 | 92.39 | 2.72E+04 | 101 | 5.98E+02 | 15.16
CCCCCCCCCCCOC(=O)CCCCCN(CCCCCCCC(=O)OC(CCCCCCCC)CCCCCCCC)CCOC(=O)NCCN(C)C [Lipid 158, heptadecan-9-yl 2-methyl-6-oxo-10-(6-oxo-6-(undecyloxy)hexyl)-7-oxa-2,5,10-triazaoctadecan-18-oate] | 1.62E+07 | 64 | 72 | 0.2315 | 97.72 | 1.24E+06 | 0 | 1.37E+04 | 6.058
CCCCCCCCCCCOC(=O)CCCCCN(CCCCCCCC(=O)OC(CCCCCCCC)CCCCCCCC)CCOC(=O)NCc1ncc[nH]1 [Lipid 159, heptadecan-9-yl 8-((2-((((1H-imidazol-2-yl)methyl)carbamoyl)oxy)ethyl)(6-oxo-6-(undecyloxy)hexyl)amino)octanoate] | 1.95E+07 | 92 | 84 | 0.1754 | 57.86 | 8.41E+05 | 90 | 4.41E+04 | −5.631
CCCCCCCCCCCOC(=O)CCCCCN(CCCCCCCC(=O)OC(CCCCCCCC)CCCCCCCC)CCOC(=O)NCCN1CCOCC1 [Lipid 161] | 1.88E+07 | 95 | 75 | 0.08727 | 58.97 | 4.62E+04 | 81 | 6.74E+03 | −10.23
CCCCCCCCCCCOC(=O)CCCCCN(CCCCCCCC(=O)OC(CCCCCCCC)CCCCCCCC)CCOC(=O)NCCCN(C)C [Lipid 162] | 1.01E+06 | 83 | 76 | 0.3875 | 86.23 | 4.27E+05 | 86 | 3.76E+03 | 14.91
CCCCCCCCCCCOC(=O)CCCCCN(CCCCCCCC(=O)OC(CCCCCCCC)CCCCCCCC)CCOC(=O)NCCCn1ccnc1 [Lipid 163] | 7.96E+06 | 92 | 79 | 0.1586 | 61.87 | 5.77E+04 | 88 | 3.32E+03 | −3.271
CCCCCCCCCCCOC(=O)CCCCCN(CCCCCCCC(=O)OC(CCCCCCCC)CCCCCCCC)CCOC(=O)NCCN1CCCC1 [Lipid 164] | 7.11E+07 | 74 | 75 | 0.2218 | 76.41 | 3.92E+06 | 86 | 9.56E+04 | 3.42
CCCCCCCCCCC(CCCCCCCC)COC(=O)CCCCCN(CCCCCC(=O)OCC(CCCCCCCC)CCCCCCCCCC)CCOC(=O)NCCCN(C)C (stereo not drawn) [Lipid 166] | 6.43E+05 | 22 | 78 | 0.2013 | 71.24 | 2.17E+07 | 12 | 1.48E+06 | 4.157
CCCCCCCCCCC(CCCCCCCC)COC(=O)CCCCCN(CCCCCC(=O)OCC(CCCCCCCC)CCCCCCCCCC)CCOC(=O)NCCCn1ccnc1 (stereo not drawn) [Lipid 167] | 9.22E+06 | 102 | 82 | 0.0668 | 61.26 | 8.85E+04 | 90 | 2.79E+04 | −3.412

From US12691070B2, “Cationic lipids and preparation method thereof” (RiboX Therapeutics HK Limited, priority 2023, dated 2026)
